Data on eight molecules can be found in US11141423B2, “Methods of screening compounds useful for treatment of a liver disease” (Icahn School of Medicine at Mount Sinai, priority 2010, dated 2021).

One assay concerns DAGL. The following applies: cited from earlier work.
For assay [1], the target named is T1, CB1R-AT1R heteromer (UniProt P30556+P47746).
T1 construct: Neuro2A cells expressing endogenous CB1R and recombinant AT1R; expressed in transfected cells; host or cells: Neuro2A stably expressing AT1R (CB1R endogenous)
T1 sequence (P47746 whole entry): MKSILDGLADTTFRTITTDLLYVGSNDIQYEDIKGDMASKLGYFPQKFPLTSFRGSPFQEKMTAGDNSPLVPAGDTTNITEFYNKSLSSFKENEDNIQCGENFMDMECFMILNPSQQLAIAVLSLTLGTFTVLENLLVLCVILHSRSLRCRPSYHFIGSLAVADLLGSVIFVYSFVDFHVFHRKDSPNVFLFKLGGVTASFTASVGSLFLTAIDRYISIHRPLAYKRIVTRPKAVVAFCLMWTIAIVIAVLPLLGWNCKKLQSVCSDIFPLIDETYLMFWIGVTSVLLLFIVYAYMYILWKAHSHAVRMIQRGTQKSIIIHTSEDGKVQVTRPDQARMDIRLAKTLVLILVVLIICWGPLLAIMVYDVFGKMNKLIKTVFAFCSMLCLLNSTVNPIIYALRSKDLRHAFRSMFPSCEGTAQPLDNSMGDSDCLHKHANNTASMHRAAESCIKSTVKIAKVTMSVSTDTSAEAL
T1 sequence (P30556 whole entry): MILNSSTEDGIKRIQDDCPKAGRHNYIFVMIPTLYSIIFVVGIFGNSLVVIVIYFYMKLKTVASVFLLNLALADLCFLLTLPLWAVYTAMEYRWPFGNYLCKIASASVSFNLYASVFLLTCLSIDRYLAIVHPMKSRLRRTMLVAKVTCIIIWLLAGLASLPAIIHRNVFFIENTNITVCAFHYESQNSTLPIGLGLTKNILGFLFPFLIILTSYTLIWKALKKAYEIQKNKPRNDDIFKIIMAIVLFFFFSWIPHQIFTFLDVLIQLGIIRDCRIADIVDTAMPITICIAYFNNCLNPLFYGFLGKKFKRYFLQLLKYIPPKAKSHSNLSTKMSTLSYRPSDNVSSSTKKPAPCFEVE
The experiment in a line: Ang II-mediated pERK in Neuro2A-AT1R cells. Type of assay: cell-based. As for the experimental part:
(§1) Generation of HEK293-Transfected Cells and Neuro2A Cell Line Stably Expressing AT1R. These cell lines were generated using standard procedure of transfection and antibiotic selection of expressing cells. Screening of positive cells was carried out by immunostaining of the receptors to evaluate the homogeneity of expression in the clones.
RNAi-mediated CB1R and βarrestin-2 downregulation.
Neuro2A cells expressing endogenous CB1R and recombinant AT1R were pretreated with vehicle or THL (2 μM) for 3 hours in serum free media and stimulated with vehicle (CTL=control) or with the receptor ligand (angiotensin II) for 3 minutes. […] ERK phosphorylation was assessed by Western blot using antibodies to pERK and ERK (n=3-5). […] The cells were processed for infrared detection of pERK.

In assay [2] the target is T2, CB1R-AT1R heteromer (Rattus norvegicus, UniProt P20272+P25095).
T2 construct: endogenous in cells; host or cells: primary hepatic stellate cells from ethanol-fed Sprague-Dawley rats (eHSCs)
T2 sequence (P20272 whole entry, one chain of several): as the sequence (P47746 whole entry) above, with D95E counted along it
The assay is described as follows: Ang II-mediated pERK in activated HSCs (eHSCs), Western blot. Type of assay: cell-based. The following applies: eHSCs from ethanol treated rats; Ang II stimulation; THL pretreatment 10 or 30 minutes; pERK normalized to total ERK. The source says: Animals received humane care according to the criteria outlined in the Guide for Care and Use of Laboratory Animals.
Isolation of Hepatic Stellate Cells: These were isolated as described before.
On the technique in general: Immunoblotting shows a protein as a band on a membrane.

A further assay has as its target T3, AT1R (Rattus norvegicus, UniProt P25095).
T3 construct: a profibrogenic receptor, AT1R, which was also expressed in cHSCs; endogenous in cells; host or cells: primary hepatic stellate cells from control-diet Sprague-Dawley rats (cHSCs)
T3 sequence (P25095 1-359): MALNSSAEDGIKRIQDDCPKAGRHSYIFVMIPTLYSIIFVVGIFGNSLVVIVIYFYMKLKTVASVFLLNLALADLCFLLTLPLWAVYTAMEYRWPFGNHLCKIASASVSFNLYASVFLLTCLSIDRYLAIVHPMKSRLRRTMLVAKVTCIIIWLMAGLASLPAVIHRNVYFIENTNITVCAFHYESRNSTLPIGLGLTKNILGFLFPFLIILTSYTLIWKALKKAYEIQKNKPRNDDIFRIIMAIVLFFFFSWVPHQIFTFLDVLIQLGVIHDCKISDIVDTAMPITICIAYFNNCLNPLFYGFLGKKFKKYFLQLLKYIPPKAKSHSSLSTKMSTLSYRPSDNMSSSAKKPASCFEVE
The experiment in a line: Ang II-mediated pERK in control HSCs (cHSCs), Western blot. Type of assay: cell-based. Particulars: cHSCs from control rats; Ang II stimulation; THL pretreatment 10 or 30 minutes. The text has this:
HSCs from ethanol treated rats were generated in the laboratory of Dr. Natalia Nieto: Rats (300 g female Sprague-Dawley, N=10/group) were fed the control or ethanol Lieber-DeCarli diets for 8 months (Lieber and DeCarli, 1989). Animals received humane care according to the criteria outlined in the Guide for Care and Use of Laboratory Animals. Details regarding pathology of the liver of the control and alcohol fed rats are described in (Cubero and Nieto, 2008; Urtasun et al., 2009).
Isolation of Hepatic Stellate Cells: These were isolated as described before. (Friedman, S. L. Hepatic stellate cells: protean, multifunctional, and enigmatic cells of the liver. Physiol Rev 88, 125-72 (2008); Teixeira-Clerc, F. et al. CB1 cannabinoid receptor antagonism: a new strategy for the treatment of liver fibrosis. Nat Med 12, 671-6 (2006)).

Assay [3] has as its target T4, CB1R-AT1R heteromer (Homo sapiens, UniProt P21554+P30556).
T4 construct: expressed in transfected cells; host or cells: HEK293
The assay is described as follows: Ang II-mediated pERK in HEK293 transfected with AT1R and CB1R. Type of assay: cell-based. On the procedure:
FIG. 3A. […] ERK phosphorylation was assessed by Western blot using antibodies to pERK and ERK. Data represent mean±SEM (n=4).
as §1

The subject of another assay is profibrogenic genes. The experiment in a line: Profibrogenic gene expression in liver of CCl4 or vehicle treated mice. Type of assay: in vivo.
The test system of assay [4] is α-SMA, TGFβ, pro-collagen α III and pro-collagen α I. The assay is described as follows: CGS21680-mediated fibrogenic response in eHSC, real-time PCR. Type of assay: cell-based, rat. The following applies: eHSCs, 6 hours, mRNA normalized to GAPDH. On the procedure: Reverse Transcription and Real-Time PCR. Total RNA was isolated from 3×10^8 HSCs using the TRIzol method (Invitrogen, Carlsbad, Calif., USA). RNA (1.0 μg) was reverse-transcribed in 20 μl of buffer containing 50 μM oligo(dT)20, 25 mM MgCl2, 0.1 M dithiothreitol, 40 U/μl RNaseOUT, and 200 U/μl SuperScript III RT for 50 min at 50° C. The reaction was stopped by incubating the samples at 85° C. for 5 min, and 40 μl of nuclease-free water was added. Real-time PCR was performed by using the Brilliant SYBR Green QPCR Master Mix. The PCR template source was either 30 ng of first-strand cDNA or purified DNA standard. Primer sequences used to amplify the desired cDNA are detailed in Table 2. Amplification was performed with a spectrofluorometric thermal cycler (Stratagene). After an initial denaturation step at 95° C. for 10 min, amplification was performed using 40 cycles of denaturation (95° C. for 30 s), annealing (56° C. for 1 min), and extension (72° C. for 1 min). To standardize mRNA levels, we amplified GAPDH, a housekeeping gene, as an internal control. […] For analysis of gene expression, after reverse transcription, the number of copies of mRNA for the indicated transcripts were determined by real-time PCR. Data were normalized to GAPDH mRNA and are expressed as the mean±SD (n=3 in quadruplicate). […]
In general terms: In qPCR the cycle at which signal appears reflects the starting amount.

Assay [5] has the same test system. The assay is described as follows: Ang II-mediated fibrogenic response in eHSC, real-time PCR. The following applies: eHSCs, 4 hours, mRNA normalized to GAPDH. Type of assay: cell-based, rat. On the procedure:
Reverse Transcription and Real-Time PCR. Total RNA was isolated from 3×10^8 HSCs using the TRIzol method (Invitrogen, Carlsbad, Calif., USA). RNA (1.0 μg) was reverse-transcribed in 20 μl of buffer containing 50 μM oligo(dT)20, 25 mM MgCl2, 0.1 M dithiothreitol, 40 U/μl RNaseOUT, and 200 U/μl SuperScript III RT for 50 min at 50° C. The reaction was stopped by incubating the samples at 85° C. for 5 min, and 40 μl of nuclease-free water was added. Real-time PCR was performed by using the Brilliant SYBR Green QPCR Master Mix. The PCR template source was either 30 ng of first-strand cDNA or purified DNA standard. Primer sequences used to amplify the desired cDNA are detailed in Table 2. Amplification was performed with a spectrofluorometric thermal cycler (Stratagene). After an initial denaturation step at 95° C. for 10 min, amplification was performed using 40 cycles of denaturation (95° C. for 30 s), annealing (56° C. for 1 min), and extension (72° C. for 1 min). To standardize mRNA levels, we amplified GAPDH, a housekeeping gene, as an internal control. […] For analysis of gene expression, after reverse transcription, the number of copies of mRNA for the indicated transcripts were determined by real-time PCR. Data were normalized to GAPDH mRNA and are expressed as the mean±SD (n=3 in quadruplicate).

T4 sequence (P21554 whole entry): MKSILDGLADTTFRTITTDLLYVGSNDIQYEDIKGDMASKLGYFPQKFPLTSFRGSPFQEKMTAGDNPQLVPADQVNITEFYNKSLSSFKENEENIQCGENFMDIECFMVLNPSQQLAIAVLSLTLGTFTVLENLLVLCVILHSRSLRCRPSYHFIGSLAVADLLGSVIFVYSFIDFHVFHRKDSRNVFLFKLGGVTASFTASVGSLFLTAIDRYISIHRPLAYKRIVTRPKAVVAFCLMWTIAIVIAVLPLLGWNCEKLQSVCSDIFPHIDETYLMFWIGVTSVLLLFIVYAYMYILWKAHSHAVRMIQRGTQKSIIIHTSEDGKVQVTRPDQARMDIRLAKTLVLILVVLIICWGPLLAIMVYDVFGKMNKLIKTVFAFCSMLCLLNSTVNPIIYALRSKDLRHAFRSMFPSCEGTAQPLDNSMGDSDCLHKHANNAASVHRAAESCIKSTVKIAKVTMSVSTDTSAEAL
T4 sequence (P30556 whole entry): as the sequence (P30556 whole entry) above

For `CCCCCCCCCCC[C@@H](C[C@@H]1OC(=O)[C@H]1CCCCCC)OC(=O)[C@H](CC(C)C)NC=O` [THL, tetrahydrolipstatin], the “Inhibition of DAGL versus other lipases” value in the assay with DAGL is reported as “inhibit DAGL at concentrations lower than those required to inhibit other lipases”. Moreover, at CB1R-AT1R heteromer [1] (Neuro2A-AT1, THL 2 μM, 3 hours, serum free media, angiotensin II 3 minutes), the “ERK1/2 phosphorylation upon agonist stimulation of the associated receptor” value is reported as “marked decrease”. In addition, the “Effect on Ang II-mediated signaling (blocking 2-AG production)” value on CB1R-AT1R heteromer [1] (Neuro2A-AT1R) is “loss”. The “Effect on Ang II-mediated ERK phosphorylation in eHSCs” value on CB1R-AT1R heteromer [2] is “decreased”. Further, the “Effect on Ang II-mediated ERK phosphorylation in cHSCs” value at AT1R is recorded as “not”. Moreover, the “Effect on Ang II-mediated signaling (pERK)” value on CB1R-AT1R heteromer [3] (HEK293 co-expressing CB1R and AT1R, 10 nM Ang II 3 minutes, SR 1 μM, THL 1 μM, 1 hour pre-treatment) was “marked decrease”.
Take `CCCCC/C=C\C/C=C\C/C=C\C/C=C\CCCC(=O)OC(CO)CO` [2-AG, 2-arachidonoyl glycerol]: the “Effect on THL-induced loss of Ang II-mediated signaling” value on CB1R-AT1R heteromer [1] is “reversed”. At CB1R-AT1R heteromer [1] (THL pretreated Neuro2A-AT1, constant agonist concentration, increasing doses of 2-AG), the “2-AG-mediated ERK1/2 phosphorylation” value is listed as “concentration-dependent”.
With “Ang II: Angiotensin II, an agonist of AT1R (DRVYIHPF)”, in the assay with CB1R-AT1R heteromer [1], the “pERK levels at concentrations of Ang II superior to 10 nM” value is reported as “decrease”; the “pERK levels on Ang II stimulation” value was “dose-dependent rapid and transient enhancement”. Besides, the “Increase in pERK on Ang II stimulation” value with CB1R-AT1R heteromer [3] is recorded as “greater increase”.
In the case of `CCNC(=O)[C@H]1O[C@@H](n2cnc3c(N)nc(NCCc4ccc(CCC(=O)O)cc4)nc32)[C@H](O)[C@@H]1O` [CGS21680], the “Expression of profibrogenic genes in liver” value in the assay on profibrogenic genes (CCl4 treated mice, acute i.p. injection CGS21680 2 mg/kg, 6 hours) is “further increased”; in the assay on profibrogenic genes (non-fibrotic livers from vehicle-treated mice, CGS21680 2 mg/kg i.p.) it was “did not elevate”.
For pertussis toxin, at CB1R-AT1R heteromer [1] (cells co-expressing CB1R and AT1R, PTX 15 nM, 16 hours, forskolin 1 μM, 30 min), the “Effect on AT1R signaling (Ang II pERK), G protein coupling” value was “markedly inhibited”.
As for `Cc1c(C(=O)NN2CCCCC2)nn(-c2ccc(Cl)cc2Cl)c1-c1ccc(Cl)cc1` [SR141716], the “Effect on CGS-mediated increase in expression of profibrogenic markers” value was “completely blocked” in assay [4] (listed as CB1R antagonist) and “prevents” in assay [4] (listed as SR). The “Effect on Ang II-mediated increase in expression of profibrogenic markers” value was “prevents” in assay [5] and “completely blocked” in assay [5] (listed as CB1R antagonist). Also, the “Effect on Ang II-mediated ERK phosphorylation in cHSCs” value on AT1R is given as “not”.
For the molecule `CCCCCCC(C)(C)c1cc(O)c2c(c1)OC(C)(C)[C@@H]1CC=C(CO)C[C@@H]21` [Hu210], at CB1R-AT1R heteromer [1], the “Effect on AT1R signaling of a non-signaling concentration of CB1R agonist” value is recorded as “potentiates” and the “Effect on THL-induced loss of Ang II-mediated signaling” value is listed as “reversed”.
Take `O=C(NCCCCCCNC(=O)ON=C1CCCCC1)ON=C1CCCCC1` [RHC80267, 1,6-bis-(cyclohexyloximino-carbonylamino)-hexane]: the “Inhibition of DAGL versus other lipases” value in the assay on DAGL was “inhibit DAGL at concentrations lower than those required to inhibit other lipases”.
